# Results: PubChem BioAssay (NCI)
#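 96-well plates; 48 h exposure; 5 concentrations. Endpoints by linear interpolation between flanking doses. Not reached: highest tested concentration assigned. GI50 = concentration required for 50% inhibition of growth. TGI denotes the concentration required for complete inhibition of growth.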
# Tests used:
# Test in all cases: growth of human tumour cells (NCI), 48 h
# NCI/ADR-RES ovarian = tested on: NCI/ADR-RES ovarian
# IGROV1 ovarian = tested on: IGROV1 ovarian
# SK-MEL-28 melanoma = tested on: SK-MEL-28 melanoma
# HCC-2998 colon = tested on: HCC-2998 colon
# SN12C renal = tested on: SN12C renal
# TK-10 renal = tested on: TK-10 renal
# ACHN renal = tested on: ACHN renal
# HOP-62 NSCLC = tested on: HOP-62 NSCLC
# T-47D breast = tested on: T-47D breast
# SF-295 CNS = tested on: SF-295 CNS
# SK-MEL-2 melanoma = tested on: SK-MEL-2 melanoma
# NCI-H460 lung = tested on: NCI-H460 lung
# K-562 leukemia = tested on: K-562 leukemia
# UACC-62 melanoma = tested on: UACC-62 melanoma
# PC-3 prostate = tested on: PC-3 prostate
# MALME-3M melanoma = tested on: MALME-3M melanoma
# OVCAR-5 ovarian = tested on: OVCAR-5 ovarian
# MDA-MB-435 = tested on: MDA-MB-435
# SF-539 CNS = tested on: SF-539 CNS
# MCF7 breast = tested on: MCF7 breast
# OVCAR-3 ovarian = tested on: OVCAR-3 ovarian
# DU-145 prostate = tested on: DU-145 prostate
# HL-60(TB) leukemia = tested on: HL-60(TB) leukemia
# NCI-H23 lung = tested on: NCI-H23 lung
# HCT-15 colon = tested on: HCT-15 colon
# OVCAR-8 ovarian = tested on: OVCAR-8 ovarian
# OVCAR-4 ovarian = tested on: OVCAR-4 ovarian
# A498 renal = tested on: A498 renal
# HS 578T breast = tested on: HS 578T breast
# 786-0 renal = tested on: 786-0 renal
# KM12 colon = tested on: KM12 colon
# HOP-92 NSCLC = tested on: HOP-92 NSCLC
# CCRF-CEM leukemia = tested on: CCRF-CEM leukemia
# SNB-19 CNS = tested on: SNB-19 CNS
# RPMI-8226 leukemia = tested on: RPMI-8226 leukemia
# SK-MEL-5 melanoma = tested on: SK-MEL-5 melanoma
# UACC-257 melanoma = tested on: UACC-257 melanoma
# A549 NSCLC = tested on: A549 NSCLC
# LOX IMVI melanoma = tested on: LOX IMVI melanoma
# SK-OV-3 ovarian = tested on: SK-OV-3 ovarian
# UO-31 renal = tested on: UO-31 renal
# HT29 colon = tested on: HT29 colon
# CAKI-1 renal = tested on: CAKI-1 renal
# U251 CNS = tested on: U251 CNS
# MOLT-4 leukemia = tested on: MOLT-4 leukemia
# SW-620 colon = tested on: SW-620 colon
# SF-268 CNS = tested on: SF-268 CNS
# BT-549 breast = tested on: BT-549 breast
# COLO 205 colon = tested on: COLO 205 colon
# NCI-H226 lung = tested on: NCI-H226 lung
# MDA-MB-231 breast = tested on: MDA-MB-231 breast
# RXF 393 renal = tested on: RXF 393 renal
# SNB-75 CNS = tested on: SNB-75 CNS
# SR leukemia = tested on: SR leukemia
# M14 melanoma = tested on: M14 melanoma
# EKVX NSCLC = tested on: EKVX NSCLC
# HCT-116 colon = tested on: HCT-116 colon
compound,measurement,setting,value
COc1ccc(-c2cc3c(OC)c(OC)c(OC)cc3oc2=O)cc1,GI50,NCI/ADR-RES ovarian,2.02 µM
same,TGI,NCI/ADR-RES ovarian,7.72 µM
same,GI50,IGROV1 ovarian,5.81 µM
same,TGI,IGROV1 ovarian,> 100 µM
same,GI50,SK-MEL-28 melanoma,5.28 µM
same,TGI,SK-MEL-28 melanoma,> 100 µM
same,GI50,HCC-2998 colon,4.41 µM
same,TGI,HCC-2998 colon,> 100 µM
same,GI50,SN12C renal,5.04 µM
same,TGI,SN12C renal,> 100 µM
same,GI50,TK-10 renal,5.11 µM
same,TGI,TK-10 renal,65 µM
same,GI50,ACHN renal,7.47 µM
same,TGI,ACHN renal,> 100 µM
same,GI50,HOP-62 NSCLC,4.68 µM
same,TGI,HOP-62 NSCLC,> 100 µM
same,GI50,T-47D breast,5.02 µM
same,TGI,T-47D breast,92.3 µM
same,GI50,SF-295 CNS,4.63 µM
same,TGI,SF-295 CNS,> 100 µM
same,GI50,SK-MEL-2 melanoma,3.48 µM
same,TGI,SK-MEL-2 melanoma,> 100 µM
same,GI50,NCI-H460 lung,3.48 µM
same,TGI,NCI-H460 lung,17 µM
same,GI50,K-562 leukemia,2.02 µM
same,TGI,K-562 leukemia,> 100 µM
same,GI50,UACC-62 melanoma,3.95 µM
same,TGI,UACC-62 melanoma,> 100 µM
same,GI50,PC-3 prostate,7.42 µM
same,TGI,PC-3 prostate,> 100 µM
same,GI50,MALME-3M melanoma,4.37 µM
same,TGI,MALME-3M melanoma,> 100 µM
same,GI50,OVCAR-5 ovarian,17.8 µM
same,TGI,OVCAR-5 ovarian,> 100 µM
same,GI50,MDA-MB-435,0.444 µM
same,TGI,MDA-MB-435,2.37 µM
same,GI50,SF-539 CNS,4.09 µM
same,TGI,SF-539 CNS,22.9 µM
same,GI50,MCF7 breast,3.69 µM
same,TGI,MCF7 breast,> 100 µM
same,GI50,OVCAR-3 ovarian,2.68 µM
same,TGI,OVCAR-3 ovarian,6.45 µM
same,GI50,DU-145 prostate,4.51 µM
same,TGI,DU-145 prostate,59.9 µM
same,GI50,HL-60(TB) leukemia,2.95 µM
same,TGI,HL-60(TB) leukemia,12.8 µM
same,GI50,NCI-H23 lung,3.49 µM
same,TGI,NCI-H23 lung,> 100 µM
same,GI50,HCT-15 colon,3.43 µM
same,TGI,HCT-15 colon,> 100 µM
same,GI50,OVCAR-8 ovarian,5 µM
same,TGI,OVCAR-8 ovarian,> 100 µM
same,GI50,OVCAR-4 ovarian,7.6 µM
same,TGI,OVCAR-4 ovarian,> 100 µM
same,GI50,A498 renal,1.7 µM
same,TGI,A498 renal,6.98 µM
same,GI50,HS 578T breast,2.59 µM
same,TGI,HS 578T breast,7.96 µM
same,GI50,786-0 renal,6.91 µM
same,TGI,786-0 renal,> 100 µM
same,GI50,KM12 colon,1.79 µM
same,TGI,KM12 colon,> 100 µM
same,GI50,HOP-92 NSCLC,2.61 µM
same,TGI,HOP-92 NSCLC,22.4 µM
same,GI50,CCRF-CEM leukemia,3.1 µM
same,TGI,CCRF-CEM leukemia,45.9 µM
same,GI50,SNB-19 CNS,5.95 µM
same,TGI,SNB-19 CNS,> 100 µM
same,GI50,RPMI-8226 leukemia,2.32 µM
same,TGI,RPMI-8226 leukemia,17 µM
same,GI50,SK-MEL-5 melanoma,2.57 µM
same,TGI,SK-MEL-5 melanoma,8.51 µM
same,GI50,UACC-257 melanoma,5.47 µM
same,TGI,UACC-257 melanoma,> 100 µM
same,GI50,A549 NSCLC,4.62 µM
same,TGI,A549 NSCLC,> 100 µM
same,GI50,LOX IMVI melanoma,5.32 µM
same,TGI,LOX IMVI melanoma,> 100 µM
same,GI50,SK-OV-3 ovarian,4.67 µM
same,TGI,SK-OV-3 ovarian,82.2 µM
same,GI50,UO-31 renal,5.59 µM
same,TGI,UO-31 renal,48.8 µM
same,GI50,HT29 colon,3.42 µM
same,TGI,HT29 colon,13.1 µM
same,GI50,CAKI-1 renal,4.59 µM
same,TGI,CAKI-1 renal,> 100 µM
same,GI50,U251 CNS,4.27 µM
same,TGI,U251 CNS,> 100 µM
same,GI50,MOLT-4 leukemia,3.92 µM
same,TGI,MOLT-4 leukemia,22.2 µM
same,GI50,SW-620 colon,2.79 µM
same,TGI,SW-620 colon,> 100 µM
same,GI50,SF-268 CNS,4.95 µM
same,TGI,SF-268 CNS,90.9 µM
same,GI50,BT-549 breast,5.85 µM
same,TGI,BT-549 breast,71.6 µM
same,GI50,COLO 205 colon,3.66 µM
same,TGI,COLO 205 colon,14.7 µM
same,GI50,NCI-H226 lung,13.3 µM
same,TGI,NCI-H226 lung,78.8 µM
same,GI50,MDA-MB-231 breast,4.91 µM
same,TGI,MDA-MB-231 breast,62.5 µM
same,GI50,RXF 393 renal,5.91 µM
same,TGI,RXF 393 renal,63.5 µM
same,GI50,SNB-75 CNS,3.39 µM
same,TGI,SNB-75 CNS,23 µM
same,GI50,SR leukemia,1.11 µM
same,TGI,SR leukemia,12.7 µM
same,GI50,M14 melanoma,3.31 µM
same,TGI,M14 melanoma,> 100 µM
same,GI50,EKVX NSCLC,8.32 µM
same,TGI,EKVX NSCLC,> 100 µM
same,GI50,HCT-116 colon,3.97 µM
same,TGI,HCT-116 colon,18.6 µM
